Common to all, as to test: NCI tumour cell line growth inhibition, 48 h
Experiment [1] deals with HOP-92.
The subject of experiment [2] is MOLT-4.
In experiment [3] the test system is NCI-H460.
For experiment [4], the system named is HL-60.
Experiment [5] has as its system BT-549.
The subject of experiment [6] is NCI-H226.
The subject of experiment [7] is CCRF-CEM.
The subject of experiment [8] is HCC 2998.
In experiment [9] the test system is SK-MEL-5.
Experiment [10] has as its system HT-29.
Experiment [11] relates to SN12C.
For experiment [12], the system named is SNB-75.
In experiment [13] the test system is MDA-N.
Experiment [14] concerns 786-0.
Experiment [15] concerns SF-295.
Experiment [16] relates to SF-539.
The test system of experiment [17] is MDA-MB-231.
Experiment [18] deals with KM12.
Experiment [19] concerns LXFL 529.
For experiment [20], the system named is M19-MEL.

We go through twelve compounds from ChEMBL document CHEMBL1201862, “PubChem BioAssay data set” (2004).

The structures appear in SMILES notation.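 Values below derive from 48-hour exposures of cells grown in 96-well plates, with endpoints linearly interpolated between the two concentrations bracketing the appropriate inhibition level. GI50 = concentration required for 50% inhibition of growth.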 Calls of active or inactive are those of the source. Rule as the data show it: active = GI50 up to about 1.1 µM and inactive = higher. Some results are limits rather than exact numbers.

As to `c1ccc(COc2ccc(C[P+](c3ccccc3)(c3ccccc3)c3ccccc3)cc2)cc1`, the GI50 in experiment [1] is 0.153 µM (active); in [2], 0.285 µM (active); in [3], 0.225 µM (active); in experiment [4], 0.0682 µM (active); in experiment [5], 0.139 µM (active); in experiment [6], 0.504 µM (active). Moreover, the GI50 in experiment [7] was 0.627 µM (active); in [8], 0.16 µM (active); in experiment [9] it was 0.108 µM (active); in experiment [10], 0.19 µM (active); in experiment [11], 0.305 µM (active); in experiment [12], 0.148 µM (active). Moreover, the GI50 in experiment [13] is 0.221 µM (active); in [14] it was 0.371 µM (active); in [15], 0.318 µM (active); in experiment [16] it was 0.284 µM (active); in experiment [17], 0.776 µM (active); in [18], 0.191 µM (active).

In the case of `COc1ccc2c(c1)c(=O)c1c(NCCN(C)C)ccc3c(=O)n(CCN(C)C)c(=O)n2c31`, the GI50 in experiment [1] was 0.0483 µM (active); in experiment [2], < 0.01 µM (active); in [3] it was < 0.01 µM (active); in experiment [4], 0.101 µM (active); in experiment [5], 0.764 µM (active); in experiment [6] it was 0.163 µM (active). Moreover, the GI50 was < 0.01 µM (active) in experiment [7]; 0.0247 µM (active) in [8]; 0.126 µM (active) in experiment [9]; 0.0197 µM (active) in experiment [10]; 0.0298 µM (active) in [11]; 0.173 µM (active) in experiment [12]. The GI50 in experiment [13] was 0.1 µM (active); in experiment [14] it was < 0.0125 µM (active); in experiment [15] it was 0.0853 µM (active); in [16] it was 0.0376 µM (active); in experiment [17] it was 0.191 µM (active); in [18], 0.0815 µM (active).

Consider `O=C(c1ccccc1)c1ccc(C(c2c(O)c3ccccc3oc2=O)c2c(O)c3ccccc3oc2=O)cc1`, for which the GI50 in experiment [1] was 18.5 µM (inactive); in experiment [2], 19.5 µM (inactive); in [3], 40.8 µM (inactive); in experiment [4] it was 34.1 µM (inactive); in [5] it was 22.5 µM (inactive); in [6], 23.3 µM (inactive). The GI50 in experiment [7] was 27.9 µM (inactive); in experiment [8], 21 µM (inactive); in experiment [9], 24.5 µM (inactive); in experiment [10], 25.1 µM (inactive); in [11], 28.4 µM (inactive); in experiment [12], 19.1 µM (inactive). Also, the GI50 was 28.2 µM (inactive) in experiment [13]; 21.2 µM (inactive) in experiment [14]; 21.2 µM (inactive) in [15]; 30.3 µM (inactive) in experiment [16]; 26.7 µM (inactive) in experiment [17]; 18.7 µM (inactive) in experiment [18].

As to `COc1ccc2c(c1)C(=O)c1ccccc1C2`, the GI50 in experiment [1] is 64 µM (inactive); in experiment [2] it was 28.6 µM (inactive); in experiment [3], 61.8 µM (inactive); in experiment [4] it was 16.3 µM (inactive); in [5] it was 64.1 µM (inactive); in experiment [6] it was > 100 µM (inactive). Further, the GI50 in experiment [7] is 25.1 µM (inactive); in [8], 70.8 µM (inactive); in experiment [9], 49.9 µM (inactive); in [10], 58.6 µM (inactive); in experiment [11], > 100 µM (inactive); in [12], 26.5 µM (inactive). In addition, the GI50 in experiment [13] was > 100 µM (inactive); in experiment [14], 73.8 µM (inactive); in experiment [15], 36.5 µM (inactive); in [16], 61.1 µM (inactive); in experiment [17], 18.9 µM (inactive); in [18], 63 µM (inactive).

In the case of `CC1(Br)CC2OC3(Br)C=CC(C)(O)C2(CC1=O)C3(C)C` (configuration not stated), the GI50 in experiment [1] is 64.4 µM (inactive); in experiment [2], > 94 µM (inactive); in [3], > 100 µM (inactive); in [19], 98.9 µM (inactive); in experiment [6] it was > 100 µM (inactive); in [7], 16 µM (inactive). Moreover, the GI50 in experiment [8] is > 100 µM (inactive); in experiment [9], > 100 µM (inactive); in [10], > 100 µM (inactive); in experiment [11] it was > 100 µM (inactive); in experiment [12], 64.6 µM (inactive); in experiment [14] it was > 100 µM (inactive). In addition, the GI50 in experiment [15], in [16] and in experiment [18] was > 100 µM (inactive) in each case.

Take `O=C1O[C@@H](c2ccccc2)C[C@H]1CN1CCOCC1`: the GI50 was > 100 µM (inactive) in [1]; 33 µM (inactive) in [2]; > 100 µM (inactive) in experiment [3]; > 100 µM (inactive) in experiment [19]; 24.6 µM (inactive) in experiment [4]; 43.6 µM (inactive) in experiment [6]. Moreover, the GI50 in experiment [7] was 33.7 µM (inactive); in experiment [8] it was > 100 µM (inactive); in experiment [9], > 100 µM (inactive); in [10], > 100 µM (inactive); in experiment [11] it was > 100 µM (inactive); in experiment [12], 51.9 µM (inactive). The GI50 in [14] was 28.2 µM (inactive); in experiment [15], > 100 µM (inactive); in experiment [16], > 100 µM (inactive); in experiment [18], 89.5 µM (inactive).

Take `CCOC(=O)c1ccc(Nc2cnc3cc(C(F)(F)F)ccc3n2)cc1`: the GI50 in experiment [1], in [2], in [3], in experiment [4], in experiment [5] and in experiment [6] was > 100 µM (inactive) each time. In addition, the GI50 was > 100 µM (inactive) in experiment [7]; > 100 µM (inactive) in experiment [8]; > 100 µM (inactive) in [9]; > 100 µM (inactive) in experiment [10]; > 100 µM (inactive) in experiment [11]; 44.9 µM (inactive) in experiment [12]. Besides, the GI50 in experiment [13] was > 100 µM (inactive); in [14], 40.3 µM (inactive); in experiment [15], > 100 µM (inactive); in [16] it was 79.6 µM (inactive); in [17], > 100 µM (inactive); in experiment [18] it was 85.1 µM (inactive).

As to `CC1(C)C2CCC1(C)C(NC(=O)COCCOCC(N)=O)C2` (configuration not stated), the GI50 in [1] was > 100 µM (inactive); in experiment [2], > 100 µM (inactive); in experiment [3], > 100 µM (inactive); in experiment [4], 56.2 µM (inactive); in [5] it was > 100 µM (inactive); in experiment [6], > 100 µM (inactive). In addition, the GI50 in experiment [7] was > 100 µM (inactive); in experiment [8] it was 45 µM (inactive); in [9], > 100 µM (inactive); in experiment [10], > 100 µM (inactive); in [11] it was > 100 µM (inactive); in experiment [12] it was > 100 µM (inactive). In addition, the GI50 in experiment [13], in [14], in experiment [15], in experiment [16], in [17] and in [18] was > 100 µM (inactive) each time.

For the compound `N#Cc1c(Cl)c2cccnc2n2c1nc1ccccc12`, the GI50 is 1.97 µM (inactive) in experiment [1]; 2.04 µM (inactive) in [2]; 7.01 µM (inactive) in [3]; 0.507 µM (active) in [4]; 4.44 µM (inactive) in [5]; 2.93 µM (inactive) in [6]. In addition, the GI50 was 0.9 µM (active) in experiment [7]; 3.85 µM (inactive) in experiment [8]; 1.13 µM (inactive) in experiment [9]; 1.94 µM (inactive) in experiment [10]; 2.04 µM (inactive) in experiment [11]; 4.38 µM (inactive) in [12]. In addition, the GI50 in [13] is 3.62 µM (inactive); in experiment [14], 1.77 µM (inactive); in experiment [15], 19 µM (inactive); in [16], 2.35 µM (inactive); in experiment [17], 2.13 µM (inactive); in experiment [18] it was 6.41 µM (inactive).

On to `Cc1ccc(S(=O)(=O)N(CC(O)COc2ccccc2)c2c(F)c(F)cc(F)c2F)cc1` (configuration not stated), for which the GI50 in experiment [1] is 11.7 µM (inactive); in experiment [2], < 0.01 µM (active); in experiment [3], 16.7 µM (inactive); in [4], 4.21 µM (inactive); in experiment [5], 24.5 µM (inactive); in experiment [6] it was 23.1 µM (inactive). For the same compound, the GI50 in experiment [7] is 33.4 µM (inactive); in [8] it was 23.6 µM (inactive); in [9], 15.9 µM (inactive); in experiment [10], 16.8 µM (inactive); in experiment [11], 22.5 µM (inactive); in experiment [12] it was 20.5 µM (inactive). Besides, the GI50 in experiment [13] is 17.2 µM (inactive); in [14], 22.3 µM (inactive); in experiment [15], 24 µM (inactive); in experiment [16], 20 µM (inactive); in [17] it was 18.3 µM (inactive); in experiment [18], 25.7 µM (inactive).

Take `O=[N+]([O-])c1nccn1CC(O)c1ccc(F)cc1` (configuration not stated): the GI50 in [1], in [2], in [20], in [3], in [19] and in experiment [4] was > 100 µM (inactive) each time. Also, the GI50 in experiment [6], in experiment [7], in experiment [9], in experiment [10], in experiment [11] and in experiment [12] was > 100 µM (inactive) each time. For the same compound, the GI50 in experiment [14], in [15], in experiment [16] and in experiment [18] was > 100 µM (inactive) in each case.

Regarding `CCN(CC)CCNc1ccc2nnn3c4ccc(OC)cc4c(=O)c1c23`, the GI50 in experiment [1] is 6.07 µM (inactive); in experiment [2], 1.93 µM (inactive); in [20], 13.5 µM (inactive); in experiment [3] it was 3.17 µM (inactive); in [19], 9.62 µM (inactive); in [4] it was 3.94 µM (inactive). Also, the GI50 in [6] is 6.3 µM (inactive); in experiment [7], 3.52 µM (inactive); in [9], 12.5 µM (inactive); in [10], 3.74 µM (inactive); in [11] it was 5.96 µM (inactive); in experiment [12], 7.82 µM (inactive). The GI50 is 4.31 µM (inactive) in experiment [14], 5.14 µM (inactive) in [15], 3.04 µM (inactive) in experiment [16] and 3.27 µM (inactive) in [18].
